ChEMBL document CHEMBL1201862, “PubChem BioAssay data set” (2004)
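Cells were grown in 96-well plates and exposed to each compound for 48 hours at five concentrations; endpoints were interpolated linearly between bracketing concentrations, or set to the highest concentration if not reached. GI50 = concentration required for 50% inhibition of growth.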 The source made the active and inactive calls. Rule as the data show it: active = GI50 up to about 1.1 µM and inactive = higher.

Columns and labels:
Test in all cases: inhibition of tumour cell growth, NCI panel, 48 h
MOLT-4 = tested on: MOLT-4
COLO 205 = tested on: COLO 205
RPMI-8226 = tested on: RPMI-8226
TK-10 = tested on: TK-10
MCF7 = tested on: MCF7
HT-29 = tested on: HT-29
UO-31 = tested on: UO-31
NCI-H226 = tested on: NCI-H226
PC-3 = tested on: PC-3
A549 = tested on: A549
SNB-19 = tested on: SNB-19
ACHN = tested on: ACHN
LOX IMVI = tested on: LOX IMVI
DU-145 = tested on: DU-145
MDA-N = tested on: MDA-N
SNB-75 = tested on: SNB-75
SF-539 = tested on: SF-539
MDA-MB-435 = tested on: MDA-MB-435
T47D = tested on: T47D
Malme-3M = tested on: Malme-3M
NCI/ADR-RES = tested on: NCI/ADR-RES
MDA-MB-231 = tested on: MDA-MB-231
NCI-H522 = tested on: NCI-H522
HOP-92 = tested on: HOP-92
HCT-15 = tested on: HCT-15
SF-295 = tested on: SF-295
M14 = tested on: M14
U-251 = tested on: U-251
HL-60 = tested on: HL-60
SK-MEL-5 = tested on: SK-MEL-5
HOP-62 = tested on: HOP-62
NCI-H460 = tested on: NCI-H460
SK-MEL-28 = tested on: SK-MEL-28
CAKI-1 = tested on: CAKI-1
BT-549 = tested on: BT-549
SF-268 = tested on: SF-268
SW-620 = tested on: SW-620
UACC-257 = tested on: UACC-257
IGROV-1 = tested on: IGROV-1
786-0 = tested on: 786-0
NCI-H23 = tested on: NCI-H23
HCC 2998 = tested on: HCC 2998
OVCAR-5 = tested on: OVCAR-5
SN12C = tested on: SN12C
SK-MEL-2 = tested on: SK-MEL-2
KM12 = tested on: KM12
HCT-116 = tested on: HCT-116
K562 = tested on: K562
UACC-62 = tested on: UACC-62
Hs-578T = tested on: Hs-578T
CCRF-CEM = tested on: CCRF-CEM
EKVX = tested on: EKVX
SK-OV-3 = tested on: SK-OV-3
OVCAR-3 = tested on: OVCAR-3
OVCAR-8 = tested on: OVCAR-8
A498 = tested on: A498
RXF 393 = tested on: RXF 393
SR = tested on: SR
OVCAR-4 = tested on: OVCAR-4

SMILES: CC(C)(C)n1c(=O)n2n(c1=O)C1c3cccc4cccc(c34)C2C2c3cccc4cccc(c34)C1n1c(=O)n(C(C)(C)C)c(=O)n12
- GI50 (MOLT-4): 61 µM (inactive)
- GI50 (COLO 205): > 100 µM (inactive)
- GI50 (RPMI-8226): 55.8 µM (inactive)
- GI50 (TK-10): 93.5 µM (inactive)
- GI50 (MCF7): > 100 µM (inactive)
- GI50 (HT-29): > 100 µM (inactive)
- GI50 (UO-31): > 100 µM (inactive)
- GI50 (NCI-H226): 84.1 µM (inactive)
- GI50 (PC-3): 59.8 µM (inactive)
- GI50 (A549): 78.3 µM (inactive)
- GI50 (SNB-19): > 100 µM (inactive)
- GI50 (ACHN): 61.4 µM (inactive)
- GI50 (LOX IMVI): 42.8 µM (inactive)
- GI50 (DU-145): 80.2 µM (inactive)
- GI50 (MDA-N): > 100 µM (inactive)
- GI50 (SNB-75): 10.8 µM (inactive)
- GI50 (SF-539): 41.4 µM (inactive)
- GI50 (MDA-MB-435): > 100 µM (inactive)
- GI50 (T47D): 44.9 µM (inactive)
- GI50 (Malme-3M): > 100 µM (inactive)
- GI50 (NCI/ADR-RES): > 100 µM (inactive)
- GI50 (MDA-MB-231): 32.9 µM (inactive)
- GI50 (NCI-H522): 36 µM (inactive)
- GI50 (HOP-92): > 100 µM (inactive)
- GI50 (HCT-15): 74.5 µM
- GI50 (SF-295): 80.4 µM (inactive)
- GI50 (M14): > 100 µM (inactive)
- GI50 (U-251): 43 µM (inactive)
- GI50 (HL-60): 30.5 µM (inactive)
- GI50 (SK-MEL-5): > 100 µM (inactive)
- GI50 (HOP-62): 67.3 µM (inactive)
- GI50 (NCI-H460): 64.7 µM (inactive)
- GI50 (SK-MEL-28): > 100 µM (inactive)
- GI50 (CAKI-1): 6.65 µM (inactive)
- GI50 (BT-549): > 100 µM (inactive)
- GI50 (SF-268): 53.8 µM (inactive)
- GI50 (SW-620): 90.4 µM (inactive)
- GI50 (UACC-257): > 100 µM (inactive)
- GI50 (IGROV-1): 21.7 µM (inactive)
- GI50 (786-0): > 100 µM (inactive)
- GI50 (NCI-H23): 95.7 µM (inactive)
- GI50 (HCC 2998): 64.3 µM (inactive)
- GI50 (OVCAR-5): > 100 µM (inactive)
- GI50 (SN12C): > 100 µM (inactive)
- GI50 (SK-MEL-2): 37.5 µM (inactive)
- GI50 (KM12): > 100 µM (inactive)
- GI50 (HCT-116): 61.9 µM (inactive)
- GI50 (K562): 87.5 µM (inactive)
- GI50 (UACC-62): 66.4 µM (inactive)
- GI50 (Hs-578T): 64.3 µM (inactive)
- GI50 (CCRF-CEM): 32.7 µM (inactive)
- GI50 (EKVX): 63.1 µM (inactive)
- GI50 (SK-OV-3): 96.8 µM (inactive)
- GI50 (OVCAR-3): 16.3 µM (inactive)
- GI50 (OVCAR-8): 86.9 µM (inactive)
- GI50 (A498): > 100 µM (inactive)

SMILES: O=c1[nH]/c(=C/c2ccc(OCc3ccccc3)cn2)c(=O)[nH]/c1=C/c1ccc(Cl)cc1
- GI50 (MOLT-4): 1.52 µM (inactive)
- GI50 (COLO 205): 11.9 µM (inactive)
- GI50 (RPMI-8226): 3.81 µM (inactive)
- GI50 (TK-10): 15.1 µM (inactive)
- GI50 (MCF7): 0.546 µM (active)
- GI50 (HT-29): 2.8 µM (inactive)
- GI50 (UO-31): 2.7 µM (inactive)
- GI50 (NCI-H226): 35.1 µM (inactive)
- GI50 (A549): > 84.9 µM (inactive)
- GI50 (SNB-19): 5.55 µM (inactive)
- GI50 (ACHN): 4.24 µM (inactive)
- GI50 (RXF 393): 4.53 µM (inactive)
- GI50 (LOX IMVI): > 22.1 µM (inactive)
- GI50 (SR): 0.301 µM (active)
- GI50 (DU-145): > 23.9 µM (inactive)
- GI50 (MDA-N): 0.215 µM (active)
- GI50 (SNB-75): 1.86 µM (inactive)
- GI50 (SF-539): 3.08 µM (inactive)
- GI50 (MDA-MB-435): 0.21 µM (active)
- GI50 (T47D): > 100 µM (inactive)
- GI50 (Malme-3M): 0.624 µM (active)
- GI50 (NCI/ADR-RES): 5.37 µM (inactive)
- GI50 (MDA-MB-231): 46.1 µM (inactive)
- GI50 (NCI-H522): 0.723 µM (active)
- GI50 (HOP-92): 13.9 µM (inactive)
- GI50 (HCT-15): 0.469 µM
- GI50 (SF-295): 0.692 µM (active)
- GI50 (M14): 1.87 µM (inactive)
- GI50 (U-251): 4.35 µM (inactive)
- GI50 (HL-60): 0.726 µM (active)
- GI50 (SK-MEL-5): 1.01 µM (active)
- GI50 (OVCAR-4): 2.42 µM (inactive)
- GI50 (HOP-62): 1.33 µM (inactive)
- GI50 (NCI-H460): 1.79 µM (inactive)
- GI50 (SK-MEL-28): > 76.7 µM (inactive)
- GI50 (CAKI-1): 0.45 µM (active)
- GI50 (BT-549): 0.344 µM (active)
- GI50 (SF-268): 1.87 µM (inactive)
- GI50 (SW-620): 1.55 µM (inactive)
- GI50 (UACC-257): 1 µM (active)
- GI50 (786-0): 1.83 µM (inactive)
- GI50 (NCI-H23): 7.87 µM (inactive)
- GI50 (HCC 2998): 2.52 µM (inactive)
- GI50 (OVCAR-5): > 100 µM (inactive)
- GI50 (SN12C): 48.3 µM (inactive)
- GI50 (SK-MEL-2): 4.73 µM (inactive)
- GI50 (KM12): 0.895 µM (active)
- GI50 (K562): 0.497 µM (active)
- GI50 (UACC-62): 1.94 µM (inactive)
- GI50 (Hs-578T): 0.804 µM (active)
- GI50 (CCRF-CEM): 3.72 µM (inactive)
- GI50 (EKVX): > 100 µM (inactive)
- GI50 (SK-OV-3): 4.47 µM (inactive)
- GI50 (OVCAR-3): 0.653 µM (active)
- GI50 (OVCAR-8): > 100 µM (inactive)
- GI50 (A498): 0.7 µM (active)
